The text below walks through data of ChEMBL document CHEMBL1141598, “Optimization of 1H-tetrazole-1-alkanenitriles as potent orally bioavailable growth hormone secretagogues” (Bioorg Med Chem Lett, 2008).

The target of data set [1] is T1, Growth hormone secretagogue receptor type 1 (Homo sapiens, UniProt Q92847). The data set can be described thus: Agonist activity at human GHS receptor expressed in H4 glioma cells. Type of data set: cell-based.
Data set [2] concerns the target T1, Growth hormone secretagogue receptor type 1. The data set can be described thus: Agonist activity at human GHS receptor expressed in H4 glioma cells assessed as intracellular calcium concentration by FLIPR assay. Type of data set: functional, cell-based.
For a further data set, the system named is Rattus norvegicus. The data set can be described thus: Increase in plasma GH level in acute anesthetized iv dosed Wistar rat model. Format: functional.
The nature of data set [3]: Oral bioavailability in rat. Type of data set: ADME, organism-based. As to conditions: in vivo.
Data set [4] in a line: Oral bioavailability in dog. Type of data set: ADME, organism-based, Canis lupus familiaris. As to conditions: in vivo.
A further data set has as its target T2, Cytochrome P450 1A2 (Homo sapiens, UniProt P05177).
T2 sequence (P05177 whole entry): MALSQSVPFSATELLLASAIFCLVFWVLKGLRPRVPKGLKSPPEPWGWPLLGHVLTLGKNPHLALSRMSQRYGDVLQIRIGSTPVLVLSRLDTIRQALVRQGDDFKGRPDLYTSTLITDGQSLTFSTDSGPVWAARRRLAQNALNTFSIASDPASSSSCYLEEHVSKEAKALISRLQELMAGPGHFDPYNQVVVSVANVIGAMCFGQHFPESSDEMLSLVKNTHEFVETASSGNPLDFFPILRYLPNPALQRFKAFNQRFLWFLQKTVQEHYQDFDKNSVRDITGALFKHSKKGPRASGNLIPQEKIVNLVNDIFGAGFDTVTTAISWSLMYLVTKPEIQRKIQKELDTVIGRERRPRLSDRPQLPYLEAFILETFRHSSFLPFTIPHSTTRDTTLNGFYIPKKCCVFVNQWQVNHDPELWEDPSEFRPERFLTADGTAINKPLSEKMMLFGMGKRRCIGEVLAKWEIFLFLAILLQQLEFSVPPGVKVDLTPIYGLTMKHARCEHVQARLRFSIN
The data set can be described thus: Inhibition of CYP1A2. Type of data set: ADME.

The target in a further data set is Cytochrome P450 2C9 (Homo sapiens, UniProt P11712). The data set can be described thus: Inhibition of CYP2C9. Format: ADME.
Cytochrome P450 2C9, sequence (P11712 whole entry): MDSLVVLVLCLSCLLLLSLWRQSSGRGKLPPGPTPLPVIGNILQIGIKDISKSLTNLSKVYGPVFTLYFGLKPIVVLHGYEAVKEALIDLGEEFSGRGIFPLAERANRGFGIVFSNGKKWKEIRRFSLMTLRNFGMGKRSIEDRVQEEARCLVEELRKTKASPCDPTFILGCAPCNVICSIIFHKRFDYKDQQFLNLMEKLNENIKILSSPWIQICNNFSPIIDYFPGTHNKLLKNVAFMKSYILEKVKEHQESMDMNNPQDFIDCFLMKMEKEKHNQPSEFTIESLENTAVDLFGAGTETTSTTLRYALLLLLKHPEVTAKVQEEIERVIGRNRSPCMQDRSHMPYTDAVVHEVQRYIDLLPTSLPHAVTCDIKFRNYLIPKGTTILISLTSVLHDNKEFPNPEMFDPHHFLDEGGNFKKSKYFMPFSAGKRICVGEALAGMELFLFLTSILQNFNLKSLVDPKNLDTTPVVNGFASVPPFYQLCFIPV
In the next data set the target is Cytochrome P450 2C19 (Homo sapiens, UniProt P33261). The data set can be described thus: Inhibition of CYP2C19. Type of data set: ADME.
Cytochrome P450 2C19, sequence (P33261 whole entry): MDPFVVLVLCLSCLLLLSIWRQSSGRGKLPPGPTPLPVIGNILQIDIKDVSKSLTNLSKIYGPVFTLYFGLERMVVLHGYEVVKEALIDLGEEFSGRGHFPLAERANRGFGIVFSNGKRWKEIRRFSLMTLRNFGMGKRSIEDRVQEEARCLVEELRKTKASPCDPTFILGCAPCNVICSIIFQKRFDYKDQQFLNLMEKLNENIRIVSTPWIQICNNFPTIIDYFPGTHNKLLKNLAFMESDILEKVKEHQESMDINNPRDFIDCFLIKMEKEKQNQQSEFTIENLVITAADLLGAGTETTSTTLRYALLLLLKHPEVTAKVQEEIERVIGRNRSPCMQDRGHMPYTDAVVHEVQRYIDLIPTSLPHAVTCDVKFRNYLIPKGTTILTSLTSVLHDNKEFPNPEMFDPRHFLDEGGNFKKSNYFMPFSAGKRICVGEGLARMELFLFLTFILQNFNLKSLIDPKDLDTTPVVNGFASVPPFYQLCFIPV
A further data set has as its target Cytochrome P450 2D6 (Homo sapiens, UniProt P10635). The data set can be described thus: Inhibition of CYP2D6. Format: ADME.
The target of data set [5] is T3, Cytochrome P450 3A4 (Homo sapiens, UniProt P08684). In words: Inhibition of CYP3A4 using 7-benzyloxy-4-trifluoromethylcoumarin as a substrate. Format: ADME.
T3 sequence (P08684 whole entry): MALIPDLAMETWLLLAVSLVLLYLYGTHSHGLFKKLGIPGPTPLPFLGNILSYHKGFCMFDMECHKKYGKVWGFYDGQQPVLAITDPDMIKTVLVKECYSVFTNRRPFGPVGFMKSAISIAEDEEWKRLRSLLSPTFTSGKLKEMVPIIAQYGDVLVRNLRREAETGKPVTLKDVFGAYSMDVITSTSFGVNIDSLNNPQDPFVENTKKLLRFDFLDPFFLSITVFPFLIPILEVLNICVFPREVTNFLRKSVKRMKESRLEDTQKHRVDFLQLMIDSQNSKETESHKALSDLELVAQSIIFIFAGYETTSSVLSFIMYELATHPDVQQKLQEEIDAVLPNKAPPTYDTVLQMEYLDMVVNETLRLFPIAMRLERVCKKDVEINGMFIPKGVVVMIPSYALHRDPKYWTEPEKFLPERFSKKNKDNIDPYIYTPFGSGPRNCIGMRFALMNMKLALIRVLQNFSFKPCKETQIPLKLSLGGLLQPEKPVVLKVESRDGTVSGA
Data set [6] concerns the target T3, Cytochrome P450 3A4. In words: Inhibition of CYP3A4 using 7-benzyloxyresorufin as a substrate. Format: ADME.

The term Ki denotes the equilibrium dissociation constant of an inhibitor or competing ligand from its target. High values mean a looser hold on the target, low ones a stronger hold on the target. As a reminder, the EC50 is the midpoint of the concentration-response curve. Broadly, the bioavailability is the share of a dose that reaches the circulation, judged against a reference dose that is usually intravenous. Higher therefore signals much systemic uptake. Usually IC50 stands for the point on the concentration scale where inhibition reaches its midpoint.

T1 sequence (Q92847 whole entry): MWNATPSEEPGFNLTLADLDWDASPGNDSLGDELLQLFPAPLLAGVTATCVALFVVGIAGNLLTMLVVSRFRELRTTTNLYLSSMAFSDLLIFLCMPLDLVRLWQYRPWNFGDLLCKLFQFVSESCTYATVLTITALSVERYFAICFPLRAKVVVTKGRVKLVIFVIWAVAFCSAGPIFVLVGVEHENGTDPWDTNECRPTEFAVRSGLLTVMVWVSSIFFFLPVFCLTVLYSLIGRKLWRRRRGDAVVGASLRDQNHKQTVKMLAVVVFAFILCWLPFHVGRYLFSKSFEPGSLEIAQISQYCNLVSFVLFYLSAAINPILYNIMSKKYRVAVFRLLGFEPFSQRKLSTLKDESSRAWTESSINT
Cytochrome P450 2D6, sequence (P10635 whole entry): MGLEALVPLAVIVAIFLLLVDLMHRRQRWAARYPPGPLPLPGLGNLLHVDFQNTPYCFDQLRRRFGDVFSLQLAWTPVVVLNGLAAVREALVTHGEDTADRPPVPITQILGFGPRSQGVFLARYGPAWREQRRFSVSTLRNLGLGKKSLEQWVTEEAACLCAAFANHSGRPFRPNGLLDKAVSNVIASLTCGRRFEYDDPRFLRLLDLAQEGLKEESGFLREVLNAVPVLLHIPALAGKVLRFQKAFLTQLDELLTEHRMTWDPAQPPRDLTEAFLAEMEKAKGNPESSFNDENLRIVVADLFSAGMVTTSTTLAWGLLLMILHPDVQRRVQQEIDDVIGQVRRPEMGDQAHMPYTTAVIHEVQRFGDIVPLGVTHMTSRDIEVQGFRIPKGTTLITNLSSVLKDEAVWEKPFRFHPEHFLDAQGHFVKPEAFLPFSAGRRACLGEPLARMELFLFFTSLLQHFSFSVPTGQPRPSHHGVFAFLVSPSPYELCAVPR

The compound `CC(C)(N)C(=O)N[C@H](COCc1ccccc1)c1nnnn1[C@@H](CC#N)COc1ccccn1` had a Ki in [1] of 503 nM. Also, the EC50 in data set [2] was 19 nM.
In the same order, the values of `CC(C)(N)C(=O)N[C@H](COCc1ccccc1)c1nnn(CC(C#N)Cc2ccccc2)n1` (mixture of isomers) are more than 5000 nM and 2470 nM.
The corresponding values for `CC(C)(N)C(=O)N[C@H](COCc1ccccc1)c1nnnn1C(/C=C/c1ccccc1)CC#N` (single isomer, unassigned; diastereomer 2) are 737 nM and 62 nM.
The corresponding values for `CC(C)(N)C(=O)N[C@H](COCc1ccccc1)c1nnnn1CCC(C#N)c1ccccc1` (mixture of isomers) are 611 nM and 27 nM.
The compound `CC(C)(N)C(=O)N[C@H](COCc1ccccc1)c1nnn(C(CC#N)CCc2ccccc2)n1` (single isomer, unassigned; diastereomer 1) had a Ki in data set [1] of 2560 nM. For the same compound, the 50% effective concentration (EC50) in data set [2] worked out at 150 nM.
In the same order, the values of `CC(C)(N)C(=O)N[C@H](COCc1ccccc1)c1nnnn1C(CC#N)COc1ccccc1F` (single isomer, unassigned; diastereomer 1) are 18 nM and 0.6 nM.
The corresponding values for `CC(C)(N)C(=O)N[C@H](COCc1ccccc1)c1nnn(C(/C=C/c2ccccc2)CC#N)n1` (single isomer, unassigned; diastereomer 1) are 453 nM and 19 nM.
`CC(C)(N)C(=O)N[C@H](COCc1ccccc1)c1nnnn1[C@H](CC#N)COc1ccccc1` displayed a Ki in [1] of 7.5 nM. The EC50 in data set [2] came out at 0.4 nM. In the data set with Rattus norvegicus, this compound displayed an ED250 of 0.87 µmol/kg.
In turn, `CC(C)(N)C(=O)N[C@H](COCc1ccccc1)c1nnnn1[C@H](CC#N)COc1ccccn1` returned an inhibition constant Ki in data set [1] of 40 nM. Further, the EC50 in data set [2] worked out at 0.4 nM. In the data set with Rattus norvegicus, this compound displayed an ED250 of 0.33 µmol/kg. Moreover, the bioavailability in data set [3] was 24%; in data set [4] it was 55%. The IC50 on Cytochrome P450 1A2 was more than 100000 nM; on Cytochrome P450 2C9, more than 100000 nM; against Cytochrome P450 2C19, 33000 nM; at Cytochrome P450 2D6, more than 100000 nM; at Cytochrome P450 3A4 [5] it was 59000 nM; at Cytochrome P450 3A4 [6], 11000 nM.
In the case of `CC(C)(N)C(=O)N[C@H](COCc1ccccc1)c1nnnn1C(/C=C/c1ccccc1)CC#N` (single isomer, unassigned; diastereomer 1), the affinity in data set [1], expressed as Ki, was 12 nM. Further, in data set [2], the EC50 was determined as 0.5 nM. The ED250 in the data set on Rattus norvegicus is more than 2 µmol/kg.
The corresponding values for `CC(C)(N)C(=O)N[C@H](COCc1ccccc1)c1nnnn1C(CC#N)CCc1ccccc1` (single isomer, unassigned; diastereomer 1) are 63 nM, 0.8 nM and 1.7 µmol/kg.
On to `CC(C)(N)C(=O)N[C@H](COCc1ccccc1)c1nnnn1C(CC#N)COc1ccccc1F` (single isomer, unassigned; diastereomer 2), for which the inhibition constant (Ki) in data set [1] came out at 696 nM. Moreover, in data set [2], the EC50 came to 64 nM.
Take `CC(C)(N)C(=O)N[C@H](COCc1ccccc1)c1nnnn1[C@@H](CC#N)COc1ccccc1O`: the affinity in [1], expressed as Ki, was 240 nM. Also, the half-maximal effective concentration (EC50) in data set [2] amounted to 23 nM.
In the data set on Rattus norvegicus, `CC(C)(N)C(=O)N[C@H](COCc1ccccc1)c1nnnn1CCC#N` displayed an ED250 of 4.8 µmol/kg.
On to `CC(C)(N)C(=O)N[C@H](COCc1ccccc1)c1nnnn1[C@H](CC#N)COc1ccccc1O`, for which the Ki in data set [1] is 5.7 nM. Besides, the EC50 in data set [2] turned out to be 0.3 nM. The compound further yielded an ED250 in the data set with Rattus norvegicus of less than 0.15 µmol/kg. In addition, the half-inhibitory concentration (IC50) at Cytochrome P450 1A2 is more than 66000 nM; on Cytochrome P450 2C9, more than 66000 nM; at Cytochrome P450 2C19, 42000 nM; at Cytochrome P450 2D6, 5100 nM; on Cytochrome P450 3A4 [5], 9800 nM; against Cytochrome P450 3A4 [6] it was 5500 nM.
For `CC(C)(N)C(=O)N[C@H](COCc1ccccc1)c1nnn(C(CC#N)CCc2ccccc2)n1` (single isomer, unassigned; diastereomer 2), in [1], the inhibition constant Ki is 3940 nM. The EC50 in [2] came to 244 nM.
For `CC(C)(N)C(=O)N[C@H](COCc1ccccc1)c1nnnn1[C@@H](CC#N)COc1ccccc1`, affinity in [1] was put at a Ki of 197 nM. For the same compound, the EC50 in [2] is 19 nM.
In turn, `CC(C)(N)C(=O)N[C@H](COCc1ccccc1)c1nnn(C(/C=C/c2ccccc2)CC#N)n1` (single isomer, unassigned; diastereomer 2) gave an inhibitory constant (Ki) in data set [1] of 2510 nM. Also, the EC50 in data set [2] was 202 nM.
In the same order, the values of `CC(C)(N)C(=O)N[C@H](COCc1ccccc1)c1nnnn1CC(C#N)Cc1ccccc1` (mixture of isomers) are 298 nM and 22 nM.
`CC(C)(N)C(=O)N[C@H](COCc1ccccc1)c1nnnn1C(CC#N)CCc1ccccc1` (single isomer, unassigned; diastereomer 2): affinity in data set [1] was put at a Ki of 1380 nM. The 50% effective concentration (EC50) in data set [2] came out at 139 nM.
The corresponding values for `CC(C)(N)C(=O)N[C@H](COCc1ccccc1)c1nnn(CCC(C#N)c2ccccc2)n1` (mixture of isomers) are more than 5000 nM and 302 nM.
